In patent publication US20230312685A1, “Bi-Peptide with Affinity to Extracellular Matrix Proteins or Cells and to Growth Factors for Tissue Healing and Regeneration” (Mayo Foundation for Medical Education and Research, priority 2019, published 2023):

Molecular target: T1, collagen type 1 of the scaffold (CMI) (Bos taurus, UniProt P02453+P02465)
T1 construct: the CMI is build out of collagen type 1 from bovine origin (FDA approved implant); from tissue; host or cells: bovine-derived collagen, in the form of the commercial collagen meniscal implant (CMI) scaffold
T1 sequence (P02453 162-1217 limits assumed): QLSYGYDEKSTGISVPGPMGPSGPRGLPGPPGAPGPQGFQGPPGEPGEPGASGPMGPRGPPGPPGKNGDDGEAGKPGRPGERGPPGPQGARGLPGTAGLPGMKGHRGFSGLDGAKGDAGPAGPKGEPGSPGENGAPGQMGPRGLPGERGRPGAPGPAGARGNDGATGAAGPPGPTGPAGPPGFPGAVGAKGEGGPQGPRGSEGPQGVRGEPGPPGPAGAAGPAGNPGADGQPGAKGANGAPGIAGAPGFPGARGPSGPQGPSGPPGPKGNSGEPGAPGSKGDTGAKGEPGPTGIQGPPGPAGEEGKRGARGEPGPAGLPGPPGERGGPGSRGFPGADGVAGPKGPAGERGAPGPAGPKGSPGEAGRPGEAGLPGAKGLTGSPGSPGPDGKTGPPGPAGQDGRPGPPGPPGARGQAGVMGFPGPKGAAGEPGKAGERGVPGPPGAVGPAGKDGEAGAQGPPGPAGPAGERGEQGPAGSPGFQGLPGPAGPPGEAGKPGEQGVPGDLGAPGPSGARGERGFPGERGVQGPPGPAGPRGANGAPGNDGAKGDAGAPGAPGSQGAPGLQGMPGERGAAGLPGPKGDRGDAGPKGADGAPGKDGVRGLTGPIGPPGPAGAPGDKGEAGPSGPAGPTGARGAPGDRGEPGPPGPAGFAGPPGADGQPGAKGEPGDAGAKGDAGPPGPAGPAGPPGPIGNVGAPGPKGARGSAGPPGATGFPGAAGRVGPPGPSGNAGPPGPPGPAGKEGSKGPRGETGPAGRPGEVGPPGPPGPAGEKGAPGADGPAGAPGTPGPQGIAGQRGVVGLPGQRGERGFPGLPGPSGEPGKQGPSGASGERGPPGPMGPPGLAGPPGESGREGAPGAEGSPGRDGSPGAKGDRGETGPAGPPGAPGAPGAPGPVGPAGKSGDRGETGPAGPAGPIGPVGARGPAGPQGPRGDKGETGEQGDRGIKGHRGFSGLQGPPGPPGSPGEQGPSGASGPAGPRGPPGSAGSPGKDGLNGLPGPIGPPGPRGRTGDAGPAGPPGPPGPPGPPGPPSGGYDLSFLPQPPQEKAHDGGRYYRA
T1 sequence (P02465 80-1117 limits assumed): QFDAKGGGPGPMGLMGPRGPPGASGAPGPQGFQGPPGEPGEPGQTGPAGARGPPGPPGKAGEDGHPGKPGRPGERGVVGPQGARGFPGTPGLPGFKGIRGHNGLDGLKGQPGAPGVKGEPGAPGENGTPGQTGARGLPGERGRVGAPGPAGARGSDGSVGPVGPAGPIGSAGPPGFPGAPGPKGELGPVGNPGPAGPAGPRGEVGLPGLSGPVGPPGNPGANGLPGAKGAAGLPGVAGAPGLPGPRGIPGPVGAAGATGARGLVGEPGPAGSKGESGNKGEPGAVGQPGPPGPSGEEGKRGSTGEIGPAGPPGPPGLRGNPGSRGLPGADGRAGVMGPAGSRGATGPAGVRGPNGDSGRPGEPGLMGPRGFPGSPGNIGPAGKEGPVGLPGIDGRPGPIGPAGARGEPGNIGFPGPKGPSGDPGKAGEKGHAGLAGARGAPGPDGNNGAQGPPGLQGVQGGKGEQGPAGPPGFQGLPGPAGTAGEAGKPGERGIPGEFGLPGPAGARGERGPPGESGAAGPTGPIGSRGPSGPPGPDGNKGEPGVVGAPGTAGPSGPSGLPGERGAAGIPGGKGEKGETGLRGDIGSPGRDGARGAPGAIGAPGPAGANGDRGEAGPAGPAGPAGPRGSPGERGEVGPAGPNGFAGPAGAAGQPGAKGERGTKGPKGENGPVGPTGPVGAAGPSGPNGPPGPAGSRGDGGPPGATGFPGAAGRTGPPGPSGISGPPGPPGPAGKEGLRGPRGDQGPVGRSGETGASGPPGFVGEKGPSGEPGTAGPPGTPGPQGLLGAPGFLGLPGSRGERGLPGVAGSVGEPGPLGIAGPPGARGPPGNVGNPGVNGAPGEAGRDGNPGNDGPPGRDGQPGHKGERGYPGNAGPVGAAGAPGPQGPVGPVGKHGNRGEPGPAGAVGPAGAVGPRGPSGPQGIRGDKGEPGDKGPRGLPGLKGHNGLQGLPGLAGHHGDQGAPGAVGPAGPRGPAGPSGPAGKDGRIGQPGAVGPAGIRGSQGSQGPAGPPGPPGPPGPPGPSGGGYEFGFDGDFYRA
Experiment: Immunofluorescence (IF) assay for PDGF-BB on the collagen meniscal implant (CMI)
Type: binding, bovine
Procedure: Pictures are merged z-stack files from confocal microscopy.
(1) Complete assay; (2) Blank assay; (3) Assay without peptide; (4) Assay without growth factor (PDGF); (5) Assay without primary antibody. Note: PDGF appears to bind well to collagen type 1 of the scaffold even without pre-incubation of the bi-peptide structure. Therefore the heparin-binding domain part of the peptide for PDGF can't be evaluated according to this assay.
FIG. 10 is an image of a Tile confocal scan of the CMI in the IF assay for PDGF-BB. The complete surface of the CMI was able to bind with recombinant PDGF.

PDGF
binding of PDGF to collagen type 1 of the scaffold (IF assay on CMI, without pre-incubation of the bi-peptide structure): bind well | binding of recombinant PDGF to the CMI surface (tile confocal scan of the CMI, complete surface): able to bind
